The values below come from US20120015907A1, “Furopyridine compounds and uses thereof” (NOVARTIS AG, priority 2010, published 2012).

Structures are written as SMILES. pIC50: −log10 of the molar value.

One assay addresses T1, HCV polymerase (Hepatitis C virus genotype 1b, UniProt Q9WMX2).
T1 construct: (His)6 (C)
Briefly: biochemical. The settings on record: NS5B polymerase IC50 μM, polymerase assay of Biological Example 1.
Take `CCOP(C)(=O)CCCCCN(c1nc2oc(-c3ccc(C)cc3)c(C(=O)NC)c2cc1I)S(C)(=O)=O` (stereo not drawn) [Example 23.9994, ethyl 5-(N-(5-iodo-3-(methylcarbamoyl)-2-p-tolylfuro[2,3-b]pyridin-6-yl)methylsulfonamido)pentyl (methyl)phosphinate]: the IC50 worked out at 0.038 µM.

`CCOP(C)(=O)CCCCCN(c1nc2oc(-c3ccc(C)cc3)c(C(=O)NC)c2cc1C1CC1)S(C)(=O)=O` (stereo not drawn) [Example 23.99995, ethyl 5-(N-(5-cyclopropyl-3-(methylcarbamoyl)-2-p-tolylfuro[2,3-b]pyridin-6-yl)methylsulfonamido)pentyl (methyl)phosphinate]: the IC50 amounted to 0.009 µM.

`CCOP(C)(=O)CCCCCN(c1nc2oc(-c3ccc(CC)cc3)c(C(=O)NC)c2cc1I)S(C)(=O)=O` (stereo not drawn) [Example 23.9992, ethyl 5-(N-(2-(4-ethylphenyl)-5-iodo-3-(methylcarbamoyl)furo[2,3-b]pyridin-6-yl)methylsulfonamido)pentyl (methyl)phosphinate] displayed an IC50 of 0.02 µM.

The assay is the same for the next values; noted with them: polymerase assay of Biological Example 1; read-out: NS5B polymerase IC50.
`CNC(=O)c1c(-c2ccc(C)cc2)oc2nc(N(CCC3CCCC3C(=O)O)S(C)(=O)=O)c(C3CC3)cc12` (stereo not drawn) [Example 29.3, 2-(2-(N-(5-cyclopropyl-3-(methylcarbamoyl)-2-p-tolylfuro[2,3-b]pyridin-6-yl)methylsulfonamido)ethyl) cyclopentanecarboxylic acid]: the pIC50 was 8.22.

As for `CCc1cc2c(C(=O)NC)c(-c3ccc(F)cc3)oc2nc1N(CCOc1ccccc1OC)S(C)(=O)=O` [Example 21.91, 5-ethyl-2-(4-fluorophenyl)-6-(N-(2-(2-methoxyphenoxy)ethyl)methylsulfonamido)-N-methylfuro[2,3-b]pyridine-3-carboxamide], the pIC50 was 6.24.

As for `CNC(=O)c1c(-c2ccc(C)cc2)oc2nc(N(CCC[C@H](COC)C(=O)N3C(=O)OC[C@@H]3Cc3ccccc3)S(C)(=O)=O)c(I)cc12` [Example 47.71], the pIC50 was 7.59.

On to `CCc1cc2c(C(=O)NC)c(-c3ccc(F)cc3)oc2nc1N(CCOc1ccc2cccnc2c1)S(C)(=O)=O` [Example 22.8, 5-ethyl-2-(4-fluorophenyl)-N-methyl-6-(N-(2-(quinolin-7-yloxy)ethyl)methylsulfonamido)furo[2,3-b]pyridine-3-carboxamide], for which the pIC50 is 7.35.

For `CNC(=O)c1c(-c2ccc(C)cc2)oc2nc(N(CCCO)S(C)(=O)=O)c(C3CC3)cc12` [Example 23.99997, 5-cyclopropyl-6-(N-(3-hydroxypropyl)methylsulfonamido)-N-methyl-2-p-tolylfuro[2,3-b]pyridine-3-carboxamide], the pIC50 was 8.40.

Take `CCc1cc2c(C(=O)NC)c(-c3ccc(F)cc3)oc2nc1N(CCCC(=O)OC)S(C)(=O)=O` [Example 21.1, methyl 4-(N-(5-ethyl-2-(4-fluorophenyl)-3-(methylcarbamoyl)furo[2,3-b]pyridin-6-yl)methylsulfonamido)butanoate]: the pIC50 was 7.28.

On to `CNC(=O)c1c(-c2ccc(C)cc2)oc2nc(N(CCOCCCC(=O)O)S(C)(=O)=O)c(C3CC3)cc12` [Example 23.999998, 4-(2-(N-(5-cyclopropyl-3-(methylcarbamoyl)-2-p-tolylfuro[2,3-b]pyridin-6-yl)methylsulfonamido)ethoxy)butanoic acid], for which the pIC50 was 8.30.

For the compound `CNC(=O)c1c(-c2ccc(F)cc2)oc2nc(N(CCn3ccnc3)S(C)(=O)=O)c(I)cc12` [Example 23.995, 6-(N-(2-(1H-imidazol-1-yl)ethyl)methylsulfonamido)-2-(4-fluorophenyl)-5-iodo-N-methylfuro[2,3-b]pyridine-3-carboxamide], the pIC50 is 6.94.

Regarding `CNC(=O)c1c(-c2ccc(C)cc2)oc2nc(N(CCC[C@H](COC)C(=O)O)S(C)(=O)=O)c(C3CC3)cc12` [Example 47.7, (R)-5-(N-(5-Cyclopropyl-3-(methylcarbamoyl)-2-p-tolylfuro[2,3-b]pyridin-6-yl)methylsulfonamido)-2-(methoxymethyl)pentanoic acid], the pIC50 was 8.70.

In the case of `CCc1ccc(-c2oc3nc(N(CCCC(C)(C)C(=O)O)S(C)(=O)=O)c(C4CC4)cc3c2C(=O)NC)cc1` [Example 29, 5-{[5-Cyclopropyl-2-(4-ethyl-phenyl)-3-methylcarbamoyl-furo[2,3-b]pyridin-6-yl]-methanesulfonyl-amino}-2,2-dimethyl-pentanoic acid], the pIC50 is 9.00.

`CNC(=O)c1c(-c2ccc(C)cc2)oc2nc(N(CCCCC(=O)O)S(C)(=O)=O)c(CCO)cc12` [Example 29.999997, 5-(N-(5-(2-hydroxyethyl)-3-(methylcarbamoyl)-2-p-tolylfuro[2,3-b]pyridin-6-yl)methylsulfonamido) pentanoic acid]: the pIC50 was 7.32.

Consider `CNC(=O)c1c(-c2ccc(C)cc2)oc2nc(N(CCC[C@@H](C)C(=O)N[C@@H](CO)Cc3ccccc3)S(C)(=O)=O)c(C3CC3)cc12` [Example 47.1], for which the pIC50 is 6.18.

Turning to `CCc1ccc(-c2oc3nc(N(CCCC4(C(=O)O)CCOCC4)S(C)(=O)=O)c(C4CC4)cc3c2C(=O)NC)cc1` [Example 29.7, 4-(3-(N-(5-cyclopropyl-2-(4-ethylphenyl)-3-(methylcarbamoyl)furo[2,3-b]pyridin-6-yl)methylsulfonamido)propyl) tetrahydro-2H-pyran-4-carboxylic acid], the pIC50 is 8.70.

Regarding `CNC(=O)c1c(-c2ccc(C)cc2)oc2nc(N(CCC[C@@H](C)C(=O)O)S(C)(=O)=O)c(C3CC3)cc12` [Example 47.3, (R)-5-(N-(5-cyclopropyl-3-(methylcarbamoyl)-2-p-tolylfuro[2,3-b]pyridin-6-yl)methylsulfonamido)-2-methylpentanoic acid], the pIC50 is 8.52.

As for `CCc1cc2c(C(=O)NC)c(-c3ccc(F)cc3)oc2nc1N(CCCCS(=O)(=O)C(F)(F)F)S(C)(=O)=O` [Example 23.97, 5-ethyl-2-(4-fiuorophenyl)-N-methyl-6-(N-(4-(trifluoromethylsulfonyl)butyl)methylsulfonamido) furo[2,3-b]pyridine-3-carboxamide], the pIC50 was 7.46.

On to `CNC(=O)c1c(-c2ccc(F)cc2)oc2nc3c(cc12)C(C)(O)CCCN3S(C)(=O)=O` (stereo not drawn) [Example 32, 2-(4-Fluoro-phenyl)-5-hydroxy-9-methanesulfonyl-5-methyl-6,7,8,9-tetrahydro-5H-1-oxa-9,10-diaza-cyclohepta[f]indene-3-carboxylic acid methylamide], for which the pIC50 was 6.19.

For `CCc1cc2c(C(=O)NC)c(-c3ccc(F)cc3)oc2nc1N(CCc1ccc(OC)cc1)S(C)(=O)=O` [Example 21.993, 5-ethyl-2-(4-fluorophenyl)-6-(N-(4-methoxyphenethyl)methylsulfonamido)-N-methylfuro[2,3-b]pyridine-3-carboxamide], the pIC50 was 6.64.

As to `CNC(=O)c1c(-c2ccc(C)cc2C)oc2nc(N(CCCCC(=O)O)S(C)(=O)=O)c(C3CC3)cc12` [Example 29.99996, 5-(N-(5-cyclopropyl-2-(2,4-dimethylphenyl)-3-(methylcarbamoyl)furo[2,3-b]pyridin-6-yl)methylsulfonamido) pentanoic acid], the pIC50 is 7.43.

For the compound `C=CCCCN(c1nc2oc(-c3ccc(F)cc3)c(C(=O)NC)c2cc1I)S(C)(=O)=O` [Example 18.5, 2-(4-fluorophenyl)-5-iodo-N-methyl-6-(N-(pent-4-enyl)methylsulfonamido)furo[2,3-b]pyridine-3-carboxamide], the pIC50 is 6.35.

As for `CNC(=O)c1c(-c2ccc(C)cc2)oc2nc(N(CCCC(O)C(C)(C)C(=O)O)S(C)(=O)=O)c(C3CC3)cc12` (stereo not drawn) [Example 50, 6-(N-(5-cyclopropyl-3-(methylcarbamoyl)-2-p-tolylfuro[2,3-b]pyridin-6-yl)methylsulfonamido)-3-hydroxy-2,2-dimethylhexanoic acid], the pIC50 was 8.52.

Take `CNC(=O)c1c(-c2ccc(C)cc2)oc2nc(N(CCCCC(C)(C)C(=O)O)S(C)(=O)=O)c(C3CC3)cc12` [Example 29.2, 6-(N-(5-cyclopropyl-3-(methylcarbamoyl)-2-p-tolylfuro[2,3-b]pyridin-6-yl)methylsulfonamido)-2,2-dimethylhexanoic acid]: the pIC50 was 9.00.

For the compound `C=C(C)c1cc2c(C(=O)NC)c(-c3ccc(F)cc3)oc2nc1N(C)S(C)(=O)=O` [Example 2.4, 2-(4-fluorophenyl)-N-methyl-6-(N-methylmethylsulfonamido)-5-(prop-1-en-2-yl)furo[2,3-b]pyridine-3-carboxamide], the pIC50 was 6.88.

Consider `C=C(CCCN(c1nc2oc(-c3ccc(C)cc3)c(C(=O)NC)c2cc1C1CC1)S(C)(=O)=O)C(=O)OC` [Example 29.9997, methyl 5-(N-(5-cyclopropyl-3-(methylcarbamoyl)-2-p-tolylfuro[2,3-b]pyridin-6-yl)methylsulfonamido)-2-methylenepentanoate], for which the pIC50 was 7.82.

For the compound `CCc1cc2c(C(=O)NC)c(-c3ccc(F)cc3)oc2nc1N(CCCN1CCN(C(=O)OC(C)(C)C)CC1)S(C)(=O)=O` [Example 21.999, tert-butyl 4-(3-(N-(5-ethyl-2-(4-fluorophenyl)-3-(methylcarbamoyl)furo[2,3-b]pyridin-6-yl)methylsulfonamido)propyl)piperazine-1-carboxylate], the negative-log IC50 (pIC50) is 6.95.

As for `CNC(=O)c1c(-c2ccc(C)cc2)oc2nc(N(CCCCN)S(C)(=O)=O)c(C3CC3)cc12` [Example 23.999993, 6-(N-(4-aminobutyl)methylsulfonamido)-5-cyclopropyl-N-methyl-2-p-tolylfuro[2,3-b]pyridine-3-carboxamide], the pIC50 was 7.80.

As to `CNC(=O)c1c(-c2ccc(F)cc2)oc2nc3c(cc12)C(C)C(O)CCCCN3S(C)(=O)=O` (stereo not drawn) [Example 38, 2-(4-Fluoro-phenyl)-6-hydroxy-11-methanesulfonyl-5-methyl-6,7,8,9,10,11-hexahydro-5H-1-oxa-11,12-diaza-cyclonona[f]indene-3-carboxylic acid methylamide], the pIC50 is 6.29.

Turning to `CNC(=O)c1c(-c2ccccc2)oc2nc(N(C)S(C)(=O)=O)c(C3CC3)cc12` [Example 2.8, 5-cyclopropyl-N-methyl-6-(N-methylmethylsulfonamido)-2-phenylfuro[2,3-b]pyridine-3-carboxamide], the pIC50 was 7.52.
